Source: US20050112573A1, “Method of detecting toxic substance” (priority 2001, published 2005)

Tested on: yeast genes (level of expressed mRNA)
Assay: DNA chip analysis of expressed mRNA of yeast genes after 2 h culture with a toxic chemical substance
Format: cell-based, Saccharomyces cerevisiae S288C
Protocol: Yeast (Saccharomyces cerevtisiae S288C (α SUC2mal mel gap2 CUP1)) were cultured at 25° C. on YPD medium (yeast extract 1%, polypepton 2%, glucose 2%). One of toxic chemical substances was added to the cell at logarithmic growth phase, and the cell was further cultured for two hours. Cell was cultured without any chemical substance in the same condition, and was used as control. Concentrations of the chemical substances were defined to inhibit the growth of the yeast but not lead to death.
After the completion of cultivation, the culture was centrifuged to collect the cells. To the cells, sodium acetate buffer (50 mM sodium acetate, 10 mM EDTA, 1% SDS) was added, and the mixture was shaken at 65° C. for five minutes, followed by returning to room temperature, and obtaining the supernatant, which procedure was repeated two times. To the supernatant, ½ amount of a solution of phenol/chloroform was added, and the mixture was centrifuged to give a supernatant, which was added with an equal amount of chloroform, and the mixture was centrifuged to give a supernatant. To the supernatant, an equal amount of isopropanol containing 0.3 M sodium acetate was added, and the mixture was allowed to stand at room temperature for 30 minutes, after which the mixture was centrifuged to give a sediment of the whole RNAs. Seventy % ethanol was added to the sediment, and the mixture was again centrifuged to give a sediment, which was then dried and dissolved in water. mRNA was isolated from the whole RNAs as followings. In view of the fact that a poly A chain is attached to the 3′ terminus of mRNA, a polynucleotide having a poly T structure which was immobilized on the surface of latex beads was used to trap the mRNA, and then the mRNA was washed and eluted with spine column (Oligotex-dT30<Super>mRNA Purification Kit, Takara). Reverse transcription of the mRNA was conducted with a reverse transcriptase (Super Script II Reverse Transcriptase; catalogue No. 18064-014, GibcoBRL) using fluorescence-labeled nucleotides to give cDNAs that were introduced with Cy3-dUTP or Cy5-dUTP during the reverse transcription.
The labeled cDNAs were dissolved in TE buffer (10 mM Tris-HCl/1 mM EDTA, pH8.0), and the solution was dropped on the DNA chip containing the whole genes of yeast (DNA Chip Research Inc. Japan) so that the cDNAs were hybridized on the DNA chip at 65° C. for over 12 hours. The fluoresces intensity of the DNA chip was read with a scanner, and the ratio relative to the fluorescence intensity resulting from the absence of chemical substance was estimated as the following, which is shown in Tables 1 to 9: [formula]
In the Tables, “Intensity” indicated in the rightmost column is a value of the level of expressed mRNA of each gene in control cells as divided by the average level of the expressions of the whole genes.

With `S=C([S-])NCCNC(=S)[S-].[Zn+2]` [(11), zinc N,N′-ethylenebis(dithiocarbamate)] the “level of expressed mRNA in the presence of chemical substance/in its absence” value (shortened to “level … of chemical substance/in its absence”) (gene YAL012W) was 4.0, the “The level of expressed mRNA in the presence of chemical substance/absence: YAL014C” value (gene YAL014C) was 1.7 and the “The level of expressed mRNA in the presence of chemical substance/absence: YAL017W” value (gene YAL017W) was 0.7. For the same compound, the “The level of expressed mRNA in the presence of chemical substance/absence: YAL018C” value (gene YAL018C) was 0.1, the “level … of chemical substance/in its absence” value (gene YAL038W) was 1.0 and the “level … of chemical substance/in its absence” value (gene YAL044C) was 1.4. For the same compound, the “The level of expressed mRNA in the presence of chemical substance/absence: YAL049C” value (gene YAL049C) was 1.0, the “level … of chemical substance/in its absence” value (gene YAL054C) was 1.3 and the “The level of expressed mRNA in the presence of chemical substance/absence: YAR047C” value (gene YAR047C) was 1.1. For the same compound, the “The level of expressed mRNA in the presence of chemical substance/absence: YAR064W” value (gene YAR064W) was 0.7, the “level … of chemical substance/in its absence” value (gene YAR071W) was 1.1 and the “level … of chemical substance/in its absence” value (gene YBL001C) was 2.3. For the same compound, the “The level of expressed mRNA in the presence of chemical substance/absence: YBL044W” value (gene YBL044W) was 0.6, the “The level of expressed mRNA in the presence of chemical substance/absence: YBL100C” value (gene YBL100C) was 0.9 and the “The level of expressed mRNA in the presence of chemical substance/absence: YBR012C” value (gene YBR012C) was 0.7. The “The level of expressed mRNA in the presence of chemical substance/absence: YBR013C” value (gene YBR013C) was 1.2, the “level … of chemical substance/in its absence” value (gene YBR014C) was 1.8 and the “level … of chemical substance/in its absence” value (gene YBR023C) was 0.9. The “level … of chemical substance/in its absence” value (gene YBR029C) was 0.7, the “level … of chemical substance/in its absence” value (gene YBR035C) was 2.0 and the “level … of chemical substance/in its absence” value (gene YBR050C) was 1.1. The “The level of expressed mRNA in the presence of chemical substance/absence: YBR051W” value (gene YBR051W) was 0.1, the “The level of expressed mRNA in the presence of chemical substance/absence: YBR063C” value (gene YBR063C) was 0.6 and the “The level of expressed mRNA in the presence of chemical substance/absence: YBR066C” value (gene YBR066C) was 1.2. For the same compound, the “level … of chemical substance/in its absence” value (gene YBR068C) was 0.8, the “level … of chemical substance/in its absence” value (gene YBR111C) was 1.5 and the “The level of expressed mRNA in the presence of chemical substance/absence: YBR124W” value (gene YBR124W) was 0.4. The “The level of expressed mRNA in the presence of chemical substance/absence: YBR129C” value (gene YBR129C) was 1.4, the “level … of chemical substance/in its absence” value (gene YBR145W) was 1.1 and the “The level of expressed mRNA in the presence of chemical substance/absence: YBR162C” value (gene YBR162C) was 0.8. For the same compound, the “level … of chemical substance/in its absence” value (gene YBR183W) was 1.9, the “level … of chemical substance/in its absence” value (gene YBR222C) was 1.3 and the “The level of expressed mRNA in the presence of chemical substance/absence: YBR255W” value (gene YBR255W) was 1.5. The “The level of expressed mRNA in the presence of chemical substance/absence: YBR281C” value (gene YBR281C) was 1.4, the “The level of expressed mRNA in the presence of chemical substance/absence: YBR287W” value (gene YBR287W) was 2.0 and the “level … of chemical substance/in its absence” value (gene YBR299W) was 2.4. For the same compound, the “level … of chemical substance/in its absence” value (gene YCL009C) was 1.5, the “The level of expressed mRNA in the presence of chemical substance/absence: YCL042W” value (gene YCL042W) was 3.2 and the “The level of expressed mRNA in the presence of chemical substance/absence: YCL044C” value (gene YCL044C) was 1.1. The “The level of expressed mRNA in the presence of chemical substance/absence: YCL056C” value (gene YCL056C) was 1.5, the “level … of chemical substance/in its absence” value (gene YCL064C) was 1.8 and the “The level of expressed mRNA in the presence of chemical substance/absence: YCR007C” value (gene YCR007C) was 1.1. For the same compound, the “level … of chemical substance/in its absence” value (gene YCR037C) was 0.8, the “level … of chemical substance/in its absence” value (gene YCR048W) was 1.2 and the “level … of chemical substance/in its absence” value (gene YCR098C) was 1.3. For the same compound, the “level … of chemical substance/in its absence” value (gene YDL022W) was 2.8, the “The level of expressed mRNA in the presence of chemical substance/absence: YDL046W” value (gene YDL046W) was 2.6 and the “The level of expressed mRNA in the presence of chemical substance/absence: YDL089W” value (gene YDL089W) was 2.0. For the same compound, the “The level of expressed mRNA in the presence of chemical substance/absence: YDL173W” value (gene YDL173W) was 1.2, the “The level of expressed mRNA in the presence of chemical substance/absence: YDL193W” value (gene YDL193W) was 1.1 and the “The level of expressed mRNA in the presence of chemical substance/absence: YDL233W” value (gene YDL233W) was 0.7. The “level … of chemical substance/in its absence” value (gene YDR009W) was 0.1, the “level … of chemical substance/in its absence” value (gene YDR019C) was 1.8 and the “The level of expressed mRNA in the presence of chemical substance/absence: YDR071C” value (gene YDR071C) was 1.4. The “The level of expressed mRNA in the presence of chemical substance/absence: YDR078C” value (gene YDR078C) was 1.1, the “The level of expressed mRNA in the presence of chemical substance/absence: YDR090C” value (gene YDR090C) was 0.7 and the “The level of expressed mRNA in the presence of chemical substance/absence: YDR109C” value (gene YDR109C) was 0.9.
